Patent US20040014066A1, “Screening system” (priority 2000, published 2004)
“Also recorded” adds a separate entry of the source. Positions of bridges follow the written chain, without caps; N, C: chain ends. Non-standard residues stand in square brackets, D forms with d. Residues, ends and D or L forms follow the SMILES beside them. *: point of attachment. Ileψ(thiazoline)Cys = CC[C@H](C)[C@H](N)C1=N[C@H](C(=O)*)CS1; dOrn = NCCC[C@@H](N)C(=O)O

Tested on: sigE promoter
Assay: sigE promoter bioassay: sigEp-neo fusion (pIJ6880) in M600, paper discs on MMT medium with lethal kanamycin, halo of kanamycin-resistant growth
Type: cell-based, Streptomyces coelicolor A3(2)
Conditions: for induction of the sigE promoter (halo of kanamycin-resistant growth), in words: M600 carrying pIJ6880, MMT medium, kanamycin 100 μg ml^−1, paper disc; for potency as inducer of the sigE promoter, in words: M600 carrying pIJ6880, kanamycin 100 μg ml^−1, paper disc
Description: To see if the sigE promoter could be induced by control-antibiotics known to target the cell envelope, spores of M600 carrying pIJ6880 were spread on MMT medium carrying a lethal concentration of kanamycin (100 μg ml^−1) and potential inducers were applied on paper discs to the freshly spread plates.
In order to perform the assay of the invention,spores of the host microorganism, for example, M600 carrying pIJ6880, are spread on MMT medium carrying a lethal concentration of kanamycin (100 μg ml^−1)at concentration of approximately 5×10^6/12 cm^2 plate. Test compound is applied on paper discs to a number of freshly spread plates in parallel using a different concentration of the test compound in each plate.

Molecule | induction of the sigE promoter (halo of kanamycin-resistant growth), in words | further results
CC1(C)S[C@@H]2[C@H](NC(=O)[C@H](N)c3ccc(O)cc3)C(=O)N2[C@H]1C(=O)O [Amoxycillin] | induced a halo of kanamycin-resistant growth | –
CC1(C)S[C@@H]2[C@H](NC(=O)[C@H](N)c3ccccc3)C(=O)N2[C@H]1C(=O)O [Ampicillin] | found to induce the sigE promoter | –
CC[C@H](C)[C@H](N)C1=N[C@H](C(=O)N[C@@H](CC(C)C)C(=O)N[C@H](CCC(=O)O)C(=O)N[C@H](C(=O)N[C@H]2CCCCNC(=O)[C@H](CC(N)=O)NC(=O)[C@@H](CC(=O)O)NC(=O)[C@H](Cc3cnc[nH]3)NC(=O)[C@@H](Cc3ccccc3)NC(=O)[C@H]([C@@H](C)CC)NC(=O)[C@@H](CCCN)NC2=O)[C@@H](C)CC)CS1 [Bacitracin] ({Ileψ(thiazoline)Cys}-L[dE]IK[dOrn]I[dF]H[dD]N; lactam 4-C) | found to induce the sigE promoter | potency as inducer of the sigE promoter, in words: particularly potent inducers
N[C@@H](C(=O)N[C@@H]1C(=O)N2C(C(=O)O)=C(Cl)CS[C@H]12)c1ccccc1 [Cefaclor] | found to induce the sigE promoter | –
CC1=C(C(=O)O)N2C(=O)[C@@H](NC(=O)[C@H](N)c3ccc(O)cc3)[C@H]2SC1 [Cefadroxil] | found to induce the sigE promoter | –
CC1=C(C(=O)O)N2C(=O)[C@@H](NC(=O)[C@H](N)c3ccccc3)[C@H]2SC1 [Cephalexin] | found to induce the sigE promoter | –
CC1=C(C(=O)O)N2C(=O)[C@@H](NC(=O)[C@H](N)C3=CCC=CC3)[C@H]2SC1 [Cepharadine] | found to induce the sigE promoter | –
CO[C@@H]1[C@@H](OC(N)=O)[C@@H](O)[C@H](Oc2ccc3c(O)c(NC(=O)c4ccc(O)c(CC=C(C)C)c4)c(=O)oc3c2C)OC1(C)C [Novobiocin] | do not induce a halo | –
CC1(C)S[C@@H]2[C@H](NC(=O)Cc3ccccc3)C(=O)N2[C@H]1C(=O)O [Penicillin G] | induced a halo of kanamycin-resistant growth; also recorded: found to induce the sigE promoter | –
[H]/N=C(/N)N[C@H]1[C@H](O)[C@@H](O)[C@H](O[C@@H]2O[C@@H](C)[C@](O)(C=O)[C@H]2O[C@@H]2O[C@@H](CO)[C@H](O)[C@@H](O)[C@@H]2NC)[C@@H](N/C(N)=N\[H])[C@@H]1O [Streptomycin] | do not induce a halo | –
C=C(NC(=O)C(=C)NC(=O)c1csc(C2=N[C@@H]3c4csc(n4)[C@H]4NC(=O)c5csc(n5)[C@H]([C@](C)(O)[C@@H](C)O)NC(=O)[C@H]5CSC(=N5)/C(=C/C)NC(=O)[C@H]([C@@H](C)O)NC(=O)c5csc(n5)[C@]3(CC2)NC(=O)[C@H](C)NC(=O)C(=C)NC(=O)[C@H](C)NC(=O)[C@H]([C@@H](C)CC)N[C@@H]2C=Cc3c([C@H](C)O)cc(nc3[C@H]2O)C(=O)O[C@@H]4C)n1)C(N)=O [Thiostrepton] | do not induce a halo | –
CC1(C)S[C@@H]2[C@H](NC(=O)[C@H](C(=O)O)c3ccsc3)C(=O)N2[C@H]1C(=O)O [Ticarcillin] | induced a halo of kanamycin-resistant growth; also recorded: found to induce the sigE promoter | –
CN[C@H](CC(C)C)C(=O)N[C@H]1C(=O)N[C@@H](CC(N)=O)C(=O)N[C@H]2C(=O)N[C@H]3C(=O)N[C@H](C(=O)N[C@H](C(=O)O)c4cc(O)cc(O)c4-c4cc3ccc4O)[C@H](O)c3ccc(c(Cl)c3)Oc3cc2cc(c3O[C@@H]2O[C@H](CO)[C@@H](O)[C@H](O)[C@H]2O[C@H]2C[C@](C)(N)[C@H](O)[C@H](C)O2)Oc2ccc(cc2Cl)[C@H]1O [Vancomycin] | induced a halo of kanamycin-resistant growth; also recorded: found to induce the sigE promoter | potency as inducer of the sigE promoter, in words: particularly potent inducers; signs of toxicity to the reporter strain while acting as inducer (halo grows to the edge of the disc) (paper disc, FIG. 2): without showing any signs of toxicity
Cc1onc(-c2ccccc2)c1C(=O)N[C@@H]1C(=O)N2[C@@H]1SC(C)(C)[C@@H]2C(=O)O [oxacillin] | found to induce the sigE promoter | –
Ristocetin | induced a halo of kanamycin-resistant growth; also recorded: found to induce the sigE promoter | potency as inducer of the sigE promoter, in words: particularly potent inducers; amount giving a positive reaction in the bioassay (initial assessment of sensitivity) (sigE promoter bioassay): 75 ng
Teicoplanin | induced a halo of kanamycin-resistant growth; also recorded: found to induce the sigE promoter | potency as inducer of the sigE promoter, in words: particularly potent inducers
lysozyme | acted as an inducer | –
